Experimental data from patent US7524851B2 (Robert Bosch Gesellschaft fur Medizinische Forschung (RBMF), priority 2003, dated 2009).

Legend:
MEK = MEK phosphorylation and expression (Western blot, FACS); assay type: cell-based, human; details: 3 days
Protocol: FACS analysis: Analysis of peripheral blood T cells and lamina propria T lymphocytes by FACS (FACSscan; Becton Dickinson; Berlin, Germany) was performed using FITC-labeled murine antibodies to human CD4 (PharMingen), anti-mouse IgG1 isotype control antibodies (PharMingen), antibodies to bcl-xL and p mitogen-activated protein kinase kinase (pMEK) (Santa Cruz Biotech; Santa Cruz, Calif., USA), and goat anti-mouse Fab-FITC (DAKO). For intracellular staining analysis, T cells were fixed in PBS/4% paraformaldehyde (Merck; Munich, Germany) for 10 minutes at 4° C., washed twice in PBS, permeabilized in PBS/0.1% Triton X-100 (Sigma-Aldrich; Steinheim, Germany), and treated with mouse anti-human bcl-xL or MEK antibodies (2 μg per 5×10^5 cells) for 30 minutes on ice. T cells were washed twice in PBS/0.1% Triton X-100 before incubation with goat anti-mouse Fab-FITC (2 μl per 10^5 cells). Finally, T cells were washed twice in PBS before FACS analysis.
The cells were then washed in PBS, resuspended in 1 ml of T40E10N150 buffer (40 mM Tris-HCl [pH 7.9], 10 mM EDTA [pH 8.0], 150 mM NaCl), put on ice for 5 minutes, and centrifuged for 4 minutes at 4° C. at 1,000 rpm. The cell pellet was then resuspended on ice in 70 μl of buffer (10 mM HEPES [pH 8.0], 400 mM NaCl, 0.1 mM EDTA, 5% glycerol, 1 mM DTT, 1 mM PMSF) and centrifuged at 15,000 rpm for 30 minutes at 4° C. The protein concentrations in supernatants were determined with the Bio-Rad Protein Assay (Bio-Rad; Munich, Germany).
Western blots: Equal amounts of extract (30 μg) were added to 8 μl of electrophoresis sample buffer (Firma Roth; Karlsruhe, Germany). After boiling, the extracts were loaded on 15% SDS-PAGE gels and electrophoretically separated. Proteins were transferred to nitrocellulose membranes, and detection was performed with the ECL Western blotting analysis system (Amersham). […]

CD45RO memory T cells = assay: Annexin V/propidium iodide FACS apoptosis of stimulated CD45RO T cells; assay type: cell-based, human; details: rIL-2, anti-CD3 plus anti-CD28; 5 days; more pronounced than in CD45RA T cells
From the text: Isolation of primary CD4^+ T lymphocytes and lamina propria cells: Human peripheral blood mononuclear cells (PBMCs) from healthy volunteers (25-42 years of age) and patients with Crohn's disease (31-65 years of age) were isolated using Ficoll-Hypaque gradients. PBMCs were further purified using CD4 monoclonal antibodies attached to immunomagnetic beads according to the manufacturer's protocol, followed by treatment with Detachabead (Dynal; Oslo, Norway). In some cases, CD4^+ T cells were further separated by negative selection techniques using CD45RO or CD45RA monoclonal antibodies (PharMingen; Heidelberg, Germany) and immunomagnetic beads (Dynal). […]
For FACS analysis, apoptotic cells were detected by staining with annexin V and propidium iodide using the Annexin V FITC Apoptosis Detection Kit I (PharMingen) (Atreya et al., Nat. Med. 6:583-588 (2000)). […] To verify the results obtained with the annexin V/propidium iodide staining, analysis of T cells displaying DNA fragmentation was also determined by the Nicoletti technique, as described in (Nicoletti et al., J. Immunol. Methods 139:271-279 (1991)). […] Finally, cells were analyzed on a FACScan flow cytometer. […]

| Compound | MEK phosphorylation (MEK) | apoptosis of CD45RO memory T cells (CD45RO memory T cells) | expression levels of MEK (MEK) |
| --- | --- | --- | --- |
| Sc1ncnc2nc[nH]c12 [6-MP, 6-mercaptopurine] | suppresses | induced apoptosis | – |
| Cn1cnc([N+](=O)[O-])c1Sc1ncnc2nc[nH]c12 [azathioprine, Azathioprine] | suppressed | induced apoptosis | nearly unchanged |
